“Also recorded” adds a separate entry of the source. Read-outs that look alike come from different tables or passages of the source.
Experiments:
[1] = system: BSC40 cells
[2] = system: vaccinia virus; format: cell-based
[3] = system: vaccinia virus; format: cell-based; remark: listed apart in the source
[4] = system: H1N1 (PR8); design: species or system female Balb/c mice; settings: mouse, in vivo
[5] = system: H1N1 (PR8); design: species or system female Balb/c mice; settings: mouse, in vivo; remark: listed apart in the source
[6] = system: H1N1 (PR8); design: species or system female Balb/c mice; settings: mouse, in vivo; remark: listed apart in the source
[7] = system: H1N1 (PR8); design: species or system female Balb/c mice; settings: mouse, in vivo; remark: listed apart in the source

COc1cc(C(=O)c2cnc(-c3c[nH]c4ccccc34)[nH]2)cc(OC)c1OC.Cl [17ya hydrochloride salt]
toxicity to BSC40 cells [1]: showed a dose response for toxicity
release of extracellular enveloped virus (EEV) from infected cells [2]: dose dependent inhibition of virus released
virus associated with the infected cells (IMV) [2]: not a good correlation between the amount of drug and the amount of virus produced
IC50 ([2]; read-out: IC50, virus released into the media (EEV)): 24.3 nM
IC90 ([2]; read-out: IC90, virus released into the media (EEV)): 37.8 nM
vaccinia virus cell-to-cell spread [3]: clear dose-dependent response
IC50 ([3]; read-out: IC50, vaccinia virus cell-to-cell spread): 15.7 nM
IC90 ([3]; read-out: IC90, vaccinia virus cell-to-cell spread): 27 nM

C[C@@H]1C[C@H]2[C@@H]3CCC4=CC(=O)C=C[C@]4(C)[C@@]3(F)[C@@H](O)C[C@]2(C)[C@@]1(O)C(=O)CO [Dexamethasone]
BAL Cytokine level: IFN-γ [4]: 4.80 ± pg/ml
BAL Cytokine level: IL-6 [4]: 351.37 ± pg/ml
BAL Cytokine level: IP-10 [4]: 1102.42 pg/mL
BAL Cytokine level: KC [4]: 854.41 pg/mL
BAL Cytokine level: TNF-α [4]: 24.08 pg/mL
change in CXCL-10 in BAL fluid [4]: −8%
change in Interferon-γ (INF-γ) in BAL fluid [4]: −81%
change in Interleukin-6 (IL-6) in BAL fluid [4]: −52%
change in Keratinocyte-derived chemokine (KC) in BAL fluid [4]: +20%
change in TNF-α in BAL fluid [4]: −13%
BAL cell counts: Eosinophils [5]: 0.03 million/animal
BAL cell counts: Lymphocytes [5]: 0.15 million/animal
BAL cell counts: Mononuclear cells [5]: 0.02 million/animal
BAL cell counts: Neutrophils [5]: 0.34 million/animal
BAL cell counts: Totals [5]: 0.54 million/animal

CCOC(=O)C1=C[C@@H](OC(CC)CC)[C@H](NC(C)=O)[C@@H](N)C1 [Oseltamivir]
H1N1 induced higher PenH [6]: completely attenuated H1N1 induced higher PenH
BAL Cytokine level: IFN-γ [4]: 2.78 ± pg/ml
BAL Cytokine level: IL-6 [4]: 31.01 ± pg/ml
BAL Cytokine level: IP-10 [4]: 147.64 ± pg/ml
BAL Cytokine level: KC [4]: 88.29 ± pg/ml
BAL cytokine levels compared to the H1N1 control group [4]: statistically significantly (p<0.01) lower TNFα, IFNγ, IL-6, KC, and IP-10; also recorded: statistically significantly lower BAL total cells, neutrophils, eosinophils, lymphocytes, mononuclear cells BAL IFNγ, IL-6, IP-10, KC and TNFα
body weight gain / body weight loss vs H1N1 vehicle control group [7]: statistically significantly higher (p<0.01) body weight gain from Day 6 to Day 11; also recorded: attenuated the clinical signs and bodyweight loss
clinical signs associated with H1N1 infection [7]: attenuation of the clinical signs; also recorded: attenuated the clinical signs
BAL cell counts: Eosinophils [5]: 0.01 ± million/animal
BAL cell counts: Lymphocytes [5]: 0.09 ± million/animal
BAL cell counts: Mononuclear cells [5]: 0.01 ± million/animal
BAL cell counts: Neutrophils [5]: 0.15 ± million/animal
BAL cell counts: Totals [5]: 0.27 ± million/animal
BAL total and differential cells compared to the H1N1 control group [5]: statistically significantly (p<0.01) lower BAL total cells, neutrophils, eosinophils, lymphocytes, and mononuclear cells

Source: patent publication US20230321045A1 (priority 2022, published 2023)
